Reference: patent EP2292241A1, “A SCUTELLARIN DERIVATIVE, THE PREPARING PROCESS, THE PHARMACEUTICAL COMPOSITION AND THE USE THEREOF” (Kunming Pharmaceutical Corp., priority 2008, dated 2009)

How the values were obtained:
[1] = system: rats with myocardial ischemia caused by coronary artery ligation; test: myocardial ischemia caused by coronary artery ligation in rats; format: in vivo, SD rat; conditions: for rate of platelet aggregation: ADP-induced, turbidimetry; for range of myocardial infarction: TTC stain, infarcted part as % of ventricle weight; for range of myocardial infarction rate of decrease: compared with the modeling group; for indicators of coagulation APTT / indicators of coagulation FIB / indicators of coagulation PT / indicators of coagulation TT: plasma 24h after ligation
Protocol: Male SD rats of 330~385g were divided at random into sham group, model group, breviscapine tablet of 40mg/kg group, A1 20mg/kg group and A1 40mg/kg group. Animals of each group were gavage once daily for consecutive 5 days in predetermined dosage, for blank group and model group, the rats were given same volume of 0.5% CNC-Na in 10ml/kg body weight. At 30 minute after the last administration, the animals were anesthetized with 12% chloral hydrate in 350 mg/kg via intraperitoneal injection, then a thoracotomy was performed to render the heart exposed. The left anterior descending coronary artery was found between pulmonary artery cone and left ventricular and was ligated at 2-3mm to the root. Reposited the heart and closed the thoracic cavity. For the sham group, the suture was merely placed but not ligated.
II lead limb ECGs before ligation and at 5min, 30 min, 1h, 2h, 4h and 24h after ligation were recorded, respectively. The change of S-T segment (J point) was measured. After 24h ECG was recorded, blood was collected in duplicate via carotid artery intubation. For one sample, serum was separated and the activity of AST, LDH and CK-MB was determined according to the method of the kit; for another sample, it was treated with 3.8% sodium citrate in 1:9 for the purpose of anticoagulation, centrifuged at 1000rpm for 5 minutes to prepare platelet rich plasma (PRP), and centrifuged at 3500rpm for 10 minutes to prepare platelet poor plasma (PPP). The rate of platelet aggregation induced by ADP-2Na was determined according to turbidimetry, the final concentration of ADP was […]; TT, PT, APTT and FIB was determined according to the method of the kit, respectively. The heart was removed quickly after blood taking, and placed into ice cold saline solution to pump out deposit blood in thoracic cavity. The atria and adipose tissue were removed, and water was adsorbed to dryness. The ventricle was weighed, cut into 5 pieces along the coronal, then incubated and stained for 10 minutes in 1% TTC solution at 37°C in darkness. […] The infracted part was cut and weighed. The percentage of infracted part accounting for the total weight of ventricle was calculated, which was the range of myocardial infarction.

[2] = system: rats with MCAO induced focal cerebral ischemia; test: focal cerebral ischemia induced by MCAO (middle cerebral artery occlusion) in rats; format: in vivo, SD rat; conditions: for range of cerebral infarction: TTC stain, % of bilateral cerebral hemispheres weight; for behavior score: full score 12, higher = more severe; for rate of platelet aggregation: ADP-induced, turbidimetry; for range of cerebral infarction rate of decrease: compared with the modeling group; for indicators of coagulation APTT / indicators of coagulation FIB / indicators of coagulation PT / indicators of coagulation TT: plasma 24h after modeling
Protocol: Male SD rats, weighing 240~290g, grouping and dosages were as above. Additionally, a positive control group, i.e., nimodipine 50mg/kg group was set up. Animals of each group were gavage once daily for consecutive 5 days in predetermined dosage. At 30 minute after the last administration, the animals were anesthetized with 12% chloral hydrate in 350 mg/kg via intraperitoneal injection. The animals were kept left lateral position and the skin was cut along the middle point between right ear and eye line. Temporalis was separated and cheekbone was sheared. A holl was drilled with a dental drill in front of zygomatic root and MCA was exposed. The MCA was hooked with a needle between the vein and olfactory tract in the brain, then was broke, after bleeding was stopped with a cotton ball, muscle and skin layer was sutured in layer. For the sham group, except for no breaking of MCA, other steps were same.
The animals were scored on neurological functions at 6 hour and 24 hour after modeling, according to behavior such as movement. Such score was used as an indicator of brain dysfunction. […] The standards of grading were as follows;
The full score of the above standards is 12. The higher the score is, the more severe the behavior disorder is.
24 hour after modeling and after neurological scoring, blood was taken via carotid artery intubation in duplicate. For one sample, serum was separated and the activity of AST and LDH was determined according to the method of the kit; for another sample, it was treated with 3.8% sodium citrate in 1:9 for the purpose of anticoagulation, centrifuged at 1000rpm for 5 minutes to prepare platelet rich plasma (PRP), and centrifuged at 3500rpm for 10 minutes to prepare platelet poor plasma (PPP). The rate of platelet aggregation induced by ADP-2Na was determined according to turbidimetry, the final concentration of ADP was […]; TT, PT, APTT and FIB was determined according to the method of the kit, respectively. The brain was removed quickly by decollation after blood taking, and then placed into ice cold saline solution to remove olfactory bulb, cerebellum and brainstem. The brain was weighed after water being absorbed to dryness, and then cut into 5 pieces along the coronal, placed into a 5ml solution containing 4% TTC and 0.1ml K2HPO4 (1mol/L) and incubated for 30 minutes at 37°C and in darkness. During the course every 7 to 8 minutes a turning was made. […] The infracted part was cut and weighed. The percentage of infracted tissue accounting for the total weight of bilateral cerebral hemispheres was calculated by weight area method, which was the range of cerebral infarction.

[3] = toxic or adverse effect at high dosage in animal experiments; format: in vivo
[4] = comparative study on solubilities (China Pharmacopeia 2005 terms); format: physicochemical; conditions: terms per China Pharmacopeia 2005
Source text: Table 7 Comparison on solubilities of compound A1 of the present invention and scutellarin

[5] = 20mg/kg, serum 24h after ligation
[6] = 40mg/kg, serum 24h after ligation

COc1ccc(-c2cc(=O)c3c(OC)c(OC)c(OC4O[C@H](C(=O)O)[C@@H](O)[C@H](O)[C@H]4O)cc3o2)cc1 (stereo partly shown) [A1, 4',5,6-trimethoxylscutellarin]
change of S-T segment after ligation ([1]; 20mg/kg gavage once daily 5 days, 5min after ligation): 0.17±0.11 mv
change of S-T segment after ligation ([1]; 20mg/kg gavage once daily 5 days, 30min after ligation): 0.12±0.09 mv
change of S-T segment after ligation ([1]; 20mg/kg gavage once daily 5 days, 1h after ligation): 0.11±0.08 mv
change of S-T segment after ligation ([1]; 20mg/kg gavage once daily 5 days, 2h after ligation): 0.11±0.07 mv
change of S-T segment after ligation ([1]; 20mg/kg gavage once daily 5 days, 4h after ligation): 0.11±0.08 mv
change of S-T segment after ligation ([1]; 20mg/kg gavage once daily 5 days, 24h after ligation): 0.07±0.08 mv
rate of platelet aggregation ([1]; 20mg/kg, 24h after ligation): 51.20±7.41 %
range of myocardial infarction ([1]; 20mg/kg): 3.50±2.68 %
range of myocardial infarction rate of decrease ([1]; 20mg/kg): 45.65%
indicators of coagulation APTT ([1]; 20mg/kg): 78.17 ± 28.14 s
indicators of coagulation FIB ([1]; 20mg/kg): 4.77 ± 1.11 g/L
indicators of coagulation PT ([1]; 20mg/kg): 25.90 ± 3.51 s
indicators of coagulation TT ([1]; 20mg/kg): 92.41 ± 42.37 s
myocardial enzymology AST [1, 5]: 0.61±0.26 ku/L
myocardial enzymology CK-MB [1, 5]: 0.71±0.45 ku/L
change of S-T segment after ligation ([1]; 40mg/kg gavage once daily 5 days, 5min after ligation): 0.14±0.12 mv
change of S-T segment after ligation ([1]; 40mg/kg gavage once daily 5 days, 30min after ligation): 0.06±0.06 mv
change of S-T segment after ligation ([1]; 40mg/kg gavage once daily 5 days, 1h after ligation): 0.05±0.04 mv
change of S-T segment after ligation ([1]; 40mg/kg gavage once daily 5 days, 2h after ligation): 0.05±0.04 mv
change of S-T segment after ligation ([1]; 40mg/kg gavage once daily 5 days, 4h after ligation): 0.06±0.05 mv
change of S-T segment after ligation ([1]; 40mg/kg gavage once daily 5 days, 24h after ligation): 0.02±0.03 mv
rate of platelet aggregation ([1]; 40mg/kg, 24h after ligation): 48.22±5.55 %
range of myocardial infarction ([1]; 40mg/kg): 2.52±2.16 %
range of myocardial infarction rate of decrease ([1]; 40mg/kg): 60.87%
indicators of coagulation APTT ([1]; 40mg/kg): 75.96 ± 35.87 s
indicators of coagulation FIB ([1]; 40mg/kg): 3.95 ± 0.84 g/L
indicators of coagulation PT ([1]; 40mg/kg): 25.75 ± 5.26 s
indicators of coagulation TT ([1]; 40mg/kg): 93.04 ± 35.64 s
myocardial enzymology AST [1, 6]: 0.61±0.20 ku/L
myocardial enzymology CK-MB [1, 6]: 0.80±0.68 ku/L
myocardial enzymology LDH [1, 6]: 0.61±0.24 ku/L
body weight 6h after surgery ([2]; 20mg/kg): 258.3 ± 11.9 g
body weight 24h after surgery ([2]; 20mg/kg): 250.0 ± 15.1 g
body weight prior to surgery ([2]; 20mg/kg): 268.8 ± 12.4 g
range of cerebral infarction ([2]; 20mg/kg gavage once daily 5 days): 2.36±1.81 %
behavior score ([2]; 20mg/kg, 6h after modeling): 6.42±1.62
serum enzymes AST ([2]; 20mg/kg, 24h after modeling): 171.2±71.6 u/L
serum enzymes LDH ([2]; 20mg/kg, 24h after modeling): 571.1±287.5 u/L
behavior score ([2]; 20mg/kg, 24h after modeling): 4.92±1.31
rate of platelet aggregation ([2]; 20mg/kg, 24h after modeling): 50.52±4.07 %
range of cerebral infarction rate of decrease ([2]; 20mg/kg): 59.10%
indicators of coagulation APTT ([2]; 20mg/kg): 62.48 ± 29.08 s
indicators of coagulation FIB ([2]; 20mg/kg): 3.38 ± 1.07 g/L
indicators of coagulation PT ([2]; 20mg/kg): 25.56 ± 5.30 s
indicators of coagulation TT ([2]; 20mg/kg): 95.55 ± 24.80 s
body weight 6h after surgery ([2]; 40mg/kg): 253.8 ± 12.1 g
body weight 24h after surgery ([2]; 40mg/kg): 244.2 ± 12.2 g
body weight prior to surgery ([2]; 40mg/kg): 265.8 ± 12.4 g
range of cerebral infarction ([2]; 40mg/kg gavage once daily 5 days): 2.04±1.43 %
behavior score ([2]; 40mg/kg, 6h after modeling): 5.75±1.42
serum enzymes AST ([2]; 40mg/kg, 24h after modeling): 152.9±33.0 u/L
serum enzymes LDH ([2]; 40mg/kg, 24h after modeling): 472.0±231.9 u/L
behavior score ([2]; 40mg/kg, 24h after modeling): 4.25±1.60
rate of platelet aggregation ([2]; 40mg/kg, 24h after modeling): 52.38±5.24 %
range of cerebral infarction rate of decrease ([2]; 40mg/kg): 64.64%
indicators of coagulation APTT ([2]; 40mg/kg): 75.15 ± 27.41 s
indicators of coagulation FIB ([2]; 40mg/kg): 3.59 ± 0.76 g/L
indicators of coagulation PT ([2]; 40mg/kg): 23.43 ± 8.66 s
indicators of coagulation TT ([2]; 40mg/kg): 62.04 ± 40.80 s
toxic or adverse effect [3]: No toxic or adverse effect was found

COCCOC(=O)C1=C(C)NC(C)=C(C(=O)OC(C)C)C1c1cccc([N+](=O)[O-])c1 (stereo not shown) [nimodipine, reference compound]
body weight 6h after surgery ([2]; 50mg/kg): 257.1 ± 11.4 g
body weight 24h after surgery ([2]; 50mg/kg): 249.6 ± 10.5 g
body weight prior to surgery ([2]; 50mg/kg): 265.8 ± 12.9 g
range of cerebral infarction ([2]; 50mg/kg gavage once daily 5 days): 2.27±2.56 %
behavior score ([2]; 50mg/kg, 6h after modeling): 6.50±1.68
serum enzymes AST ([2]; 50mg/kg, 24h after modeling): 198.6±118.2 u/L
serum enzymes LDH ([2]; 50mg/kg, 24h after modeling): 536.7±262.8 u/L
behavior score ([2]; 50mg/kg, 24h after modeling): 4.83±1.40
rate of platelet aggregation ([2]; 50mg/kg, 24h after modeling): 54.15±7.76%
range of cerebral infarction rate of decrease ([2]; 50mg/kg): 60.66%
indicators of coagulation APTT ([2]; 50mg/kg): 61.02 ± 44.79 s
indicators of coagulation FIB ([2]; 50mg/kg): 3.52 ± 1.14 g/L
indicators of coagulation PT ([2]; 50mg/kg): 23.38 ± 8.23 s
indicators of coagulation TT ([2]; 50mg/kg): 88.55 ± 32.24 s

O=C(O)[C@H]1O[C@@H](Oc2cc3oc(-c4ccc(O)cc4)cc(=O)c3c(O)c2O)[C@H](O)[C@@H](O)[C@@H]1O [scutellarin]
solubility ([4]; 0.01N NaOH): soluble
solubility ([4]; 95%EtOH): slightly soluble
solubility ([4]; H2O): very slightly soluble
solubility ([4]; MeOH): slightly soluble
solubility ([4]; n-BuOH): slightly soluble
